The values that follow come from patent US12605351B2, “Method for producing a composition comprising a 3-O-p-coumaroyl ester of tormentic acid from a plant cell culture, applications thereof as antiparasitic agent for the treatment of trypanosomiasis” (LUXEMBOURG INSTITUTE OF SCIENCE AND TECHNOLOGY, priority 2019, dated 2026).

Read-outs that look alike come from different tables or passages of the source.

Data set [1] relates to Trypanosoma brucei brucei bloodstream forms (strain 427). Nature of the data set: In vitro antitrypanosomal activity on Tbb BSF. Type of data set: cell-based. As to the method: Antiparasitic activities were evaluated in vitro on Trypanosoma brucei brucei bloodstream forms (strain 427) (Tbb BSF). Tbb BSF were cultured in vitro at 37° C. with 5% CO2 in HMI9 medium containing 10% heat-inactivated fetal bovine serum, […] ([…]) and L-cysteine ([…]).
In vitro tests were performed as previously described by Hoet S. et al. (Planta Med., 2004, 70, 407-413, doi:10.1055/s-2004-818967). Suramine (a commercial anti-trypanosomal drug) and camptothecin were used as positive controls. Stock solutions of compounds to be tested were prepared at a concentration of 10 mg/mL in DMSO. The solutions were further diluted in medium (described in 1.1) to give 0.1 mg/mL stock solutions. Extracts and compounds were tested in eight serial three-fold dilutions (final concentration range: 50-0.02 mg/L) in 96-well microliter plates. All tests were performed at least in duplicate.

Data set [2] relates to Human normal fibroblast cell line (WI-38). As to the kind of experiment: cells. Particulars: cytotoxicity, WI-38 human fibroblasts, Table 3. Type of data set: cell-based. As to the method:
The cytotoxicity of tested compounds was evaluated in parallel on a Human normal fibroblast cell line (WI-38) cultivated in a humidified atmosphere with 5% CO2 at 37° C. Human normal fibroblast cell line (WI-38) was cultivated in DMEM medium (Life Technologies) containing 4 mM L-glutamine, 1 mM sodium pyruvate supplemented with 10% fetal bovine serum (Sigma) and penicillin-streptomycin (100 UI/mL).
Suramine (a commercial anti-trypanosomal drug) and camptothecin were used as positive controls. Stock solutions of compounds to be tested were prepared at a concentration of 10 mg/mL in DMSO. The solutions were further diluted in medium (described in 1.1) to give 0.1 mg/mL stock solutions. Extracts and compounds were tested in eight serial three-fold dilutions (final concentration range: 50-0.02 mg/L) in 96-well microliter plates. All tests were performed at least in duplicate.

Data set [3] can be described thus: In vivo acute toxicity test (highest tolerated dose). Also on record: species or system NMRI mice. Particulars: for acute toxicity: intraperitoneally every 2 hours, 10-15-25-50 mg/kg, monitored 48 h. An excerpt: (§1) NMRI mice (6-8 weeks of age) obtained from Envigo Laboratories (The Netherlands) were used. All in vivo experiments performed were approved by the Ethical Committee for animals use at the Health Sciences Sector of the Catholic University of Louvain (2017/UCL/MD/017).
The assessment of the highest tolerated dose was based on a DNDi protocol by Loset J.-R. et al. (V. Drug Screening for Kinetoplastids Diseases. A Training Manual for Screening in Neglected Diseases-DNDi, 2009) and adapted by Beaufay C. et al. (Malar J., 2017, 16, doi:10.1186/s12936-017-2054-y). Briefly, 3-O-cis/trans-p-coumaroyltormentic acid isolated from fractions F-F9 obtained from a callus of Malus domestica Cox cultivar of example 1 above was given intraperitoneally every 2 hours to 2 mice using increasing doses: 10-15-25-50 mg/kg from stock solutions of 10 mg/mL. Mice were controlled for any health problem symptoms or behavioral changes and monitored for weight and hematocrit after each injection and every day during 48 h after administration. Main organs (heart, liver, spleen, lung and kidney) of treated mice were observed and weighed wet during autopsy. Control group received the vehicle, distilled water with 10% of tween 80-ethanol (7:3). The total injected dose was finally recorded and will ensure the non-toxicity of in vivo anti-trypanosomal test.

For data set [4], the system named is Trypanosoma brucei brucei. Nature of the data set: In vivo anti-trypanosomal activity in infected mice. Also on record: species or system NMRI mice. The note with it: for survival of infected mice in comparison to the untreated group: 50 mg/kg/d i.p. day 3-7 post-infection, followed to day 19; for parasitemia: day 4 post-infection, 50 mg/kg/day intraperitoneally, 10^4 Tbb/mouse; for survival increase: day 12 post-infection, 50 mg/kg i.p. day 3-7.
Text: as §1
Mice were randomly divided into 6 mice per group for 3-O-cis/trans-p-coumaroyltormentic acid (mixture of cis and trans) and ursolic acid, 4 for positive control (Suramine) and 7 for the negative control, and were infested intraperitoneally with 10^4 Trypanosoma brucei brucei. All compounds were solubilized in the vehicle (water-tween 80-ethanol) and administered intraperitoneally. 3-O-cis/trans-p-coumaroyltormentic acid or ursolic acid (UA) were administered at 50 mg/kg at day 3 after infection with the parasite and then every day until day 7 post-infection. Suramine (0.5 mg/kg) was administered while vehicle was used as a negative control. From day 3 post infection, a drop of blood collected each day from mouse-tail was used to count parasitemia.

Data set [5] deals with Trypanosoma brucei brucei. Particulars: review Isah et al. 2016; cited from earlier work.
For a further data set, the system named is Trypanosoma cruzi. Particulars: review Isah et al. 2016; cited from earlier work.
Another data set concerns MCR-5 cells. The note with it: cited from earlier work.

On to “3β-trans/cis-p-coumaroyl-2α,19α-dihydroxy-urs-12-en-28-oic acid [3-O-cis/trans-p-coumaroyltormentic acid]”, for which, in data set [1] (Tbb bloodstream forms strain 427, Table 3), the “Tbb (IC50 μg/mL)” value came to 0.48 ± 0.36 µg/mL. For the same molecule, the IC50 turned out to be 0.75 ± 0.57 µM in data set [1] (Tbb bloodstream forms strain 427, Table 3, read-out: Tbb (IC50 μM)) and 44.8 ± 1.25 µM in data set [2] (read-out: WI38 (IC50 μM)). Also, the “anti-trypanosomal activity, times higher than that of tormentic acid” value in data set [1] (in vitro, versus tormentic acid) amounted to 10 times. For the same molecule, the “WI38 (IC50 μg/mL)” value in data set [2] was determined as 28.43 ± 0.79 µg/mL. In data set [3] (mice, intraperitoneal, repeated injections), the “total cumulative highest tolerated dose” value came out at 100 mg/kg. Moreover, the acute toxicity entry in data set [3] (mice) is given as “no acute toxic symptom”; in data set [3] (mice, listed as 3-O-p-coumaroyl ester of tormentic acid) it was “no acute toxicity”. Moreover, the “survival of infected mice in comparison to the untreated group” value is “significant increase” in data set [4] (listed as 3-O-p-coumaroyl ester of tormentic acid) and “significantly improved” in data set [4] (listed as esters). In data set [4], the parasitemia entry is recorded as “significant decrease”. In data set [4], this molecule came in with a survival increase of 33.3%.
`C[C@H]1[C@H](C)CC[C@]2(C(=O)O)CC[C@]3(C)C(=CC[C@@H]4[C@@]5(C)CC[C@H](O)C(C)(C)[C@@H]5CC[C@]43C)[C@H]12` [Ursolic acid]: the IC50 in data set [1] (Trypanosoma brucei, Tbb bloodstream forms strain 427, Table 3, read-out: Tbb (IC50 μM)) turned out to be 2.38 ± 0.24 µM; in data set [1] (Trypanosoma brucei, Tbb bloodstream forms strain 427, Table 3, read-out: Tbb (IC50 μg/mL)), 1.08 ± 0.11 µg/mL; in data set [2] (read-out: WI38 (IC50 μM)), 11.1 ± 0.22 µM; in data set [2] (read-out: WI38 (IC50 μg/mL)), 5.08 ± 0.1 µg/mL. Also, the “SI (Selectivity Index)” value in data set [1] (cytotoxicity in WI38 compared to Tbb) came out at 4.8. Further, the “total cumulative highest tolerated dose” value in data set [3] (NMRI, mouse, in vivo, ip, 48 h) was 100 mg/kg. Further, the acute toxicity result in data set [3] (mice) was “no acute toxic symptom”. The “survival of infected mice in comparison to the untreated group” value in data set [4] is given as “no significant difference”. For the same molecule, the parasitemia result in data set [4] is “did not show any effect”. The same molecule yielded a survival increase in data set [4] of 16.7%.
For the molecule tingenin, the “IC50 against Trypanosoma brucei brucei” value in data set [5] is less than 0.25 µg/mL. The “IC50 against Trypanosoma cruzi” value in the data set on Trypanosoma cruzi is less than 0.25 µg/mL. Moreover, in the data set with MCR-5 cells, the “cytotoxicity IC50 on MCR-5 cells” value was 0.45 µg/mL.
